Experimental data taken from patent publication US20230250096A1, “SUBSTITUTED PHENYL-1H-PYRROLO[2,3-c] PYRIDINE DERIVATIVES” (Janssen Pharmaceutica NV, priority 2021, published 2023).

How the values were obtained:
[1] = target: T1, menin/MLL (terbium chelate-labeled menin, FITC-MBM1 peptide) (Homo sapiens, UniProt O00255, T541A); assay: Menin/MLL homogenous time-resolved fluorescence (HTRF) assay; assay type: binding; details: 30 min incubation
T1 construct: Menin (a.a 1-610-6xhis tag, 2.3 mg/mL in 20 mM Hepes)
T1 sequence (O00255 with tags, fused parts or gaps T541A): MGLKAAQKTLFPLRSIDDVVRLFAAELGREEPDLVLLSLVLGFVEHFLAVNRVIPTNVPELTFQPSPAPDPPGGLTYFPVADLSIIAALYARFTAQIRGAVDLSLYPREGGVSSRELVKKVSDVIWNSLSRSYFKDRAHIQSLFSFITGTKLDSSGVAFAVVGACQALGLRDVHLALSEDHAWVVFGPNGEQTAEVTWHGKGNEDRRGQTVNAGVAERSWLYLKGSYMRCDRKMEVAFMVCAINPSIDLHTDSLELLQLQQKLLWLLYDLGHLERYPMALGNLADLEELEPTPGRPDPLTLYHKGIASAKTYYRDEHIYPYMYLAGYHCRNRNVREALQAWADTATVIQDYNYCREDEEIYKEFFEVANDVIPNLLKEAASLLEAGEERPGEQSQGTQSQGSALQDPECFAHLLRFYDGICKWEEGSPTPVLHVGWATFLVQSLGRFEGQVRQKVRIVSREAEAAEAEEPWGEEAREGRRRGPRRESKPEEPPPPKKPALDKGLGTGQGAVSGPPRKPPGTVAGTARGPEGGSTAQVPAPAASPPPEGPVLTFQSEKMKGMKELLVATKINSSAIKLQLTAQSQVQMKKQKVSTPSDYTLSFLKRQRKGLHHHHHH
How it was run: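 Competition binding read by time-resolved FRET (FITC 520 nm over terbium 490 nm) after compound meets labeled menin 1-610-His […] for 30 min, then FITC-MBM1 (75 nM) for 15 min, ambient temperature, 0.5% DMSO. Eleven-point four-fold dilutions, usually starting at 10 μM, fitted to four-parameter curves for IC50.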

MEIS1 mRNA expression = MEIS1 mRNA expression assay (Quantigene Singleplex) in MOLM14 cells; assay type: cell-based, human; details: 48 hours incubation
How it was run: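 Read-out: MEIS1 transcript counts, background-subtracted and divided by RPL28, expressed as fold change over DMSO-treated cells, then dose-response modelled for IC50. MOLM14 cells (3,750/well) received graded compound for 48 h before lysis and QuantiGene hybridization at 55 °C.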

IC50 [1] [nM]	IC50 (MEIS1 mRNA expression; Homo sapiens, MOLM-14, 48 h) [nM]	IC50 (MEIS1 mRNA expression) [nM]	SMILES
0.153	156	–	Cc1cncc2c1c(CC1CCN(CC3CCC(=O)NC3)CC1)cn2-c1ccc(F)cc1C(=O)N(C)C(C)C (stereo not drawn) [Compound 195]
0.19	438	–	Cc1cncc2c1c(CC1CN(CC3CNCC(=O)C3)C1)cn2-c1ccc(F)cc1C(=O)N(C)C(C)C (stereo not drawn) [Compound 196]
0.602	–	> 1000	CC(=O)NC1CCC(N2CC[C@H](Cc3cn(-c4ccc(F)cc4C(=O)N(C)C(C)C)c4cncc(C)c34)C2)CC1 (stereo partly drawn) [Compound 210]
0.039	21	–	Cc1cncc2c1c(C[C@@H]1CCN(CC3(C)CCN(C(N)=O)CC3)C1)cn2-c1ccc(F)cc1C(=O)N(C)C(C)C [Compound 217]
0.094	48	–	Cc1cncc2c1c(C[C@H]1CCN(CC3(C)CCN(C(N)=O)CC3)C1)cn2-c1ccc(F)cc1C(=O)N(C)C(C)C [Compound 218]
0.039	32	–	Cc1cncc2c1c(CC1CN(CC3(C)CCN(C(N)=O)CC3)C1)cn2-c1ccc(F)cc1C(=O)N(C)C(C)C [Compound 219]
0.932	> 1000	–	CC(=O)N1C[C@@H]2[C@H](CN3CC[C@@H](Cc4cn(-c5ccc(F)cc5C(=O)N(C)C(C)C)c5cncc(C)c45)C3)[C@@H]2C1 [Compound 220]
0.311	109	–	Cc1cncc2c1c(CC1CN(C[C@H]3CC[C@@H](C(=O)N(C)C)CC3)C1)cn2-c1ccc(F)cc1C(=O)N(C)C(C)C [Compound 221]
0.239	279	–	CC(=O)N1CC2CC1CC2N1CC[C@@H](Cc2cn(-c3ccc(F)cc3C(=O)N(C)C(C)C)c3cncc(C)c23)C1 (stereo partly drawn) [Compound 223]
0.255	–	269	CC(=O)N1CCC(CN2CCC(Cc3cn(-c4ccc(F)cc4C(=O)N(C)C(C)C)c4cncc(C)c34)C2C)CC1 (stereo not drawn) [Compound 226]
0.655	–	551	CC(=O)N1CCC(CN2CCC(Cc3cn(-c4ccc(F)cc4C(=O)N(C)C(C)C)c4cncc(C)c34)C2C)CC1 (stereo not drawn) [Compound 227]
0.235	–	93	CC(=O)N1CCC(CN2CCC(Cc3cn(-c4ccc(F)cc4C(=O)N(C)C(C)C)c4cncc(C)c34)C2C)CC1 (stereo not drawn) [Compound 229]
0.097	14	–	Cc1cncc2c1c(CC1CCN(CC3CCN(C(=O)N(C)C)CC3)CC1)cn2-c1ccc(F)cc1C(=O)N(C)C(C)C [Compound 235]
0.086	~98.9	–	CNC(=O)[C@H]1CC[C@@H](CN2CC[C@H](Cc3cn(-c4ccc(F)cc4C(=O)N(C)C(C)C)c4cncc(C)c34)C2)CC1 [Compound 236]
0.149	52	–	Cc1cncc2c1c(CC1CCN(CC3CCN(C(=O)C(C)(C)O)CC3)CC1)cn2-c1ccc(F)cc1C(=O)N(C)C(C)C [Compound 237]
1.94	> 1000	–	CC(=O)N1CCC(CN2CC[C@@H](Cc3cn(-c4ccc(F)cc4C(=O)NC(C)C)c4cncc(C)c34)C2)CC1 [Compound 238]
0.305	138	–	Cc1cncc2c1c(CC1(C)CCN(CC3CCOCC3)C1)cn2-c1ccc(F)cc1C(=O)N(C)C(C)C (stereo not drawn) [Compound 239]
0.084	173	–	CNC(=O)[C@H]1CC[C@@H](CN2CC(Cc3cn(-c4ccc(F)cc4C(=O)N(C)C(C)C)c4cncc(C)c34)C2)CC1 [Compound 241]
0.811	–	> 1000	CC(=O)N1CCC(C)C(N2CC[C@@H](Cc3cn(-c4ccc(F)cc4C(=O)N(C)C(C)C)c4cncc(C)c34)C2)C1 (stereo partly drawn) [Compound 242]
0.097	–	37	CC(=O)N1CCC(C)C(N2CC[C@@H](Cc3cn(-c4ccc(F)cc4C(=O)N(C)C(C)C)c4cncc(C)c34)C2)C1 (stereo partly drawn) [Compound 243]
0.101	51	–	Cc1cncc2c1c(C[C@H]1CCN(CC3CCN(C(=O)C(C)(C)O)CC3)C1)cn2-c1ccc(F)cc1C(=O)N(C)C(C)C [Compound 244]
0.185	65	–	Cc1cncc2c1c(C[C@H]1CCN(CC3CCN(C(=O)C4(O)CC4)CC3)C1)cn2-c1ccc(F)cc1C(=O)N(C)C(C)C [Compound 245]
0.023	7	–	Cc1cncc2c1c(C[C@@H]1CCN(CC3CCN(C(=O)C4(O)CC4)CC3)C1)cn2-c1ccc(F)cc1C(=O)N(C)C(C)C [Compound 249]
0.076	30	–	Cc1cncc2c1c(CC1CN(CC3CCN(C(=O)C(C)(C)O)CC3)C1)cn2-c1ccc(F)cc1C(=O)N(C)C(C)C [Compound 250]

IC50 [1] [nM]	IC50 (MEIS1 mRNA expression; Homo sapiens, MOLM-14, 48 h) [nM]	IC50 (MEIS1 mRNA expression) [nM]	SMILES
0.066	83	–	Cc1cncc2c1c(CC1CN(CC3CCN(C(=O)C4(O)CC4)CC3)C1)cn2-c1ccc(F)cc1C(=O)N(C)C(C)C [Compound 251]
0.102	10	–	CCN(C(=O)c1cc(F)ccc1-n1cc(C[C@@H]2CCN(CC3CCN(C(C)=O)CC3)C2)c2c(C)cncc21)C(C)C [Compound 255]
0.073	20	–	CCN(C(=O)c1cc(F)ccc1-n1cc(C[C@H]2CCN(CC3CCN(C(C)=O)CC3)C2)c2c(C)cncc21)C(C)C [Compound 256]
0.031	7	–	CCN(C(=O)c1cc(F)ccc1-n1cc(C[C@@H]2CCN(CC3CCOCC3)C2)c2c(C)cncc21)C(C)C [Compound 257]
0.021	11	–	CC(=O)N1CCC(CN2CC[C@@H](Cc3cn(-c4ccc(F)cc4C(=O)N(C(C)C)C(C)C)c4cncc(C)c34)C2)CC1 [Compound 258]
0.031	138	–	CCc1cncc2c1c(C[C@@H]1CCN(CC3CCN(C(C)=O)CC3)C1)cn2-c1ccc(F)cc1C(=O)N(C)C(C)C [Compound 259]
0.042	~27.6	–	CCc1cncc2c1c(C[C@H]1CCN(CC3CCN(C(C)=O)CC3)C1)cn2-c1ccc(F)cc1C(=O)N(C)C(C)C [Compound 260]
0.213	217	–	Cc1cncc2c1c(CC1CN(CC3CCOCC3)C1)cn2-c1ccc(F)cc1C(=O)N1CCC12CCC2 [Compound 261]
0.097	46	–	Cc1cncc2c1c(CC1CN(CC3CCOCC3)C1)cn2-c1ccc(F)cc1C(=O)N(C)C1CC1 [Compound 265]
0.349	431	–	Cc1cncc2c1c(CC1CN(CC3CCOCC3)C1)cn2-c1ccc(F)cc1C(=O)N1CCC12COC2 [Compound 266]
0.24	166	–	COCC1CCCN1C(=O)c1cc(F)ccc1-n1cc(CC2CN(CC3CCOCC3)C2)c2c(C)cncc21 (stereo not drawn) [Compound 267]
1.7	18	–	Cc1cncc2c1c(CC1CN(CC3CCOCC3)C1)cn2-c1ccc(F)cc1C(=O)N(C)C1CCOC1 (stereo not drawn) [Compound 269]
0.368	288	–	Cc1cncc2c1c(CC1CN(CC3CCOCC3)C1)cn2-c1ccc(F)cc1C(=O)N1CCC(O)C1C (stereo not drawn) [Compound 271]
0.31	~270	–	Cc1cncc2c1c(CC1CN(CC3CCOCC3)C1)cn2-c1ccc(F)cc1C(=O)N1CCC(O)C1(C)C (stereo not drawn) [Compound 272]
1.08	> 1000	–	Cc1cncc2c1c(CC1CN(CC3CCOCC3)C1)cn2-c1ccc(F)cc1C(=O)N1CC2(O)CC1C2 [Compound 273]
2.42	> 1000	–	Cc1cncc2c1c(CC1CN(CC3CCOCC3)C1)cn2-c1ccc(F)cc1C(=O)N(C)[C@H]1C[C@@H](O)C1 [Compound 274]
0.945	> 1000	–	Cc1cncc2c1c(CC1CN(CC3CCOCC3)C1)cn2-c1ccc(F)cc1C(=O)N(C)[C@H]1C[C@H](O)C1 [Compound 275]
0.532	~462	–	Cc1cncc2c1c(CC1CN(CC3CCOCC3)C1)cn2-c1ccc(F)cc1C(=O)N(C)C1(CO)CCC1 [Compound 276]
0.481	~502	–	Cc1cncc2c1c(CC1CN(CC3CCOCC3)C1)cn2-c1ccc(F)cc1C(=O)N(C)C1(CO)CC1 [Compound 277]
0.323	342	–	Cc1cncc2c1c(CC1CN(CC3CCOCC3)C1)cn2-c1ccc(F)cc1C(=O)N(CCO)C1CC1 [Compound 278]
0.077	51	–	Cc1cncc2c1c(CC1CN(CC3CCOCC3)C1)cn2-c1ccc(F)cc1C(=O)N1CCCCC1C (stereo not drawn) [Compound 280]
3.27	> 1000	–	Cc1cncc2c1c(CC1CN(CC3CCOCC3)C1)cn2-c1ccc(F)cc1C(=O)N1C[C@H](O)C[C@@H]1C [Compound 282]
0.61	440	–	CNC(=O)c1cccc(CN2CC(Cc3cn(-c4ccc(F)cc4C(=O)N(C)C(C)C)c4cncc(C)c34)C2)c1 [Compound 283]

SMILES	IC50 [1] [nM]	IC50 (MEIS1 mRNA expression; Homo sapiens, MOLM-14, 48 h) [nM]	IC50 (MEIS1 mRNA expression) [nM]
Cc1cncc2c1c(CC1CN(CC3CCOCC3)C1)cn2-c1ccc(F)cc1C(=O)N1C2COCC1C2 [Compound 263]	0.258	175	–
